The term pKa denotes the negative logarithm of the acid dissociation constant.

The conditions of data set [1]: strongly basic head group; cited from earlier work.
The subject of data set [2] is CAT reporter gene expression in lung. Nature of the data set: Gene transfer efficiency by intravenous delivery: CAT reporter gene (plasmid p4119) activity in mouse organs. The class given is in vivo, ICR female mice. The note with it: with either cholesterol or DLPE as neutral lipids. The procedure: (§1) DOBG, DMBG and DPBG were used to prepare liposomes with either cholesterol or DLPE (1,2-dilauroyl-sn-glycerol-3-phosphoethanolamine) as neutral lipids. The lipids were dissolved in a mixture of chloroform and methanol (1:1). Lipid films of cationic and neutral lipid at a 1:1 molar ratio were formed with a rotary evaporator. The films were hydrated with either 5% dextrose in water (D5W) or 5 mM HEPES buffer (pH 7.4) at various temperatures. […] DMBG:DLPE was hydrated in D5W at 50° C. and extruded through a 0.05 μm membrane. […] DOBG:cholesterol and DOBG:DLPE were hydrated in D5W at room temperature and extruded through a 0.05 μm membrane.
In general terms: In a reporter assay the amount or activity of a reporter protein is the signal.

For data set [3], the system named is in vivo transfection. The data set is described as follows: Comparison of in vivo transfection activity of biguanide and guanidine derivatives with identical hydrophobic chains. The note with it: data not shown. From the text: The biguanide derivatives of the present invention differ from the guanidine derivatives described in WO 95/14381 in the positively charged headgroups. The positive charge of the biguanide derivatives is delocalized over five nitrogen atoms, whereas the positive charge of the guanidine derivatives is delocalized over three nitrogen atoms. Thus, compounds of the present invention have been compared to the guanidine derivatives having the identical hydrophobic chains (not shown).

A short description of data set [4]: Liposome hydration and extrusion. The class given is physicochemical. As to conditions: at 50° C.; with either DLPE or cholesterol. On the procedure: as §1

In the case of `N=C(N)NC(=N)N` [biguanide], the pKa in data set [1] is reported as 11.5.

Regarding `CCCCCCCC/C=C\CCCCCCCC(=O)OCCN(CCOC(=O)CCCCCCC/C=C\CCCCCCCC)C(=N)NC(=N)N` [DOBG, N,N-di(2-(oleoyloxy)ethyl) biguanide], the “transfection activity in the lung compared with DOTIM:cholesterol” value in data set [2] was “comparable to or higher than DOTIM:cholesterol”. Further, the “in vivo transfection activity, dioleoyl derivatives of biguanide versus guanidine” value in data set [3] is on record as “higher in vivo transfection activity than the dioleolyl derivatives of guanidine”.

Take `CCCCCCCCCCCCCCCC(=O)OCCN(CCOC(=O)CCCCCCCCCCCCCCC)C(=N)NC(=N)N` [DPBG, N,N-di(2-(palmitoyloxy)ethyl)biguanide]: in data set [4], the “Hydration of lipid film” value is recorded as “could not be completely hydrated”.

Values taken from patent US5958894A, “Amphiphilic biguanide derivatives” (Megabios Corporation, priority 1997, dated 1999).
